These results are taken from patent US7144731B2, “SCF antibody compositions and methods of using the same” (Amgen Inc., priority 1989, dated 2006).

The test system of test [1] is normal human bone marrow. The test is described as follows: Human CFU-GM assay. The class given is cell-based. The note with it: average of triplicate cultures; SCF = COS-1 supernatant 4 days after transfection.
The test system of test [2] is human bone marrow. Put plainly: Human bone marrow colony assay. The class given is cell-based. The following applies: agar colony assay, factors alone or combined. The method, boiled down:
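COS-1-expressed human SCF (aa 1–162), alone or with other growth factors, was tested on Ficoll-separated healthy human bone marrow. Cultures were grown in methylcellulose with 30% FCS and 20 U/ml EPO for 14 days at 7% O2. Colonies ≥0.2 mm were scored.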

The test system of test [3] is KG-1. The test is described as follows: KG-1 soft agar cloning assay. It is filed as cell-based, human. The note with it: 50 μl assayed (5 ng/ml). As for the experimental part: Another activity of recombinant human SCF is the ability to cause proliferation in soft agar of the human acute myelogenous leukemia (AML) cell line, KG-1 (ATCC CCL 246). COS-1 supernatants from transfected cells were tested in a KG-1 agar cloning assay [Koeffler et al., Science, 200, 1153–1154 (1978)] essentially as described except cells were plated at 3000/ml.

The test system of test [4] is HIV. The note with it: other studies; cited from earlier work.
The subject of test [5] is 5-FU treated mouse bone marrow cells. Put plainly: HPP-CFC assay. The class given is cell-based. The following applies: typical assay; plated with CSF-1 or IL-6. An excerpt: There are a variety of biological activities which can be attributed to the natural mammalian rat SCF as well as the recombinant rat SCF protein. One such activity is its effect on early hematopoietic cells. This activity can be measured in a High Proliferative Potential Colony Forming Cell (HPP-CFC) assay [Zsebo, et al., supra (1988)]. To investigate the effects of factors on early hematopoietic cells, the HPP-CFC assay system utilizes mouse bone marrow derived from animals 2 days after 5-fluorouracil (5-FU) treatment. […] The rat SCF is plated in the presence of CSF-1 or IL-6 in semi-solid agar cultures. The agar cultures contain McCoys complete medium (GIBCO), 20% fetal bovine serum, 0.3% agar, and 2×10^5 bone marrow cells/ml. The McCoys complete medium contains the following components: 1× McCoys medium supplemented with 0.1 mM pyruvate, 0.24× essential amino acids, 0.24× non-essential amino acids, 0.027% sodium bicarbonate, 0.24× vitamins, 0.72 mM glutamine, 25 μg/ml L-serine, and 12 μg/ml L-asparagine. The bone marrow cells are obtained from Balb/c mice injected i.v. with 150 mg/kg 5-FU. The femurs are harvested 2 days post 5-FU treatment of the mice and bone marrow is flushed out. The red blood cells are lysed with red blood cell lysing reagent (Becton Dickenson) prior to plating. Test substances are plated with the above mixture in 30 mm dishes. Fourteen days later the colonies (>1 mm in diameter) which contain thousands of cells are scored. This assay was used throughout the purification of natural mammalian cell-derived rat SCF.

The test system of test [6] is murine mast cell line, MC/9. The test is described as follows: MC/9 ^3H-thymidine uptake assay. It is filed as cell-based. The note with it: typical. How it is done:
Another useful biological activity of both naturally-derived and recombinant rat SCF is the ability to cause the proliferation of the […] murine mast cell line, MC/9 (ATCC CRL 8306). MC/9 cells are cultured with a source of […] according to the ATCC CRL 8306 protocol. The medium used in the bioassay is RPMI 1640, 4% fetal bovine serum, 5×10^−5M 2-mercaptoethanol, and 1× glutamine-pen-strep. The MC/9 cells proliferate in response to SCF without the requirement for other growth factors. This proliferation is measured by first culturing the cells for 24 h without growth factors, plating 5000 cells in each well of 96 well plates with test sample for 48 h, pulsing for 4 h with 0.5 uCi ^3H-thymidine (specific activity 20 Ci/mmol), harvesting the solution onto glass fiber filters, and then measuring specifically-bound radioactivity. This assay was used in the purification of mammalian cell derived rat SCF after the ACA 54 gel filtration step, section C2 of this Example. Typically, SCF caused a 4–10 fold increase in CPM over background.

Test [7] concerns normal mouse bone marrow. Put plainly: CFU-GM assay on normal mouse bone marrow. It is filed as cell-based. The following applies: 10 day period, no other factors. How it is done: The action of purified mammalian SCF, both naturally-derived and recombinant, free from interfering colony stimulating factors (CSFs), on normal undepleted mouse bone marrow has been ascertained. A CFU-GM assay [Broxmeyer et al. Exp. Hematol., 5, 87 (1977)] is used to evaluate the effect of SCF on normal marrow. Briefly, total bone marrow cells after lysis of red blood cells are plated in semi-solid agar cultures containing the test substance. After.10 days, the colonies containing clusters of >40 cells are scored. The agar cultures can be dried down onto glass slides and the morphology of the cells can be determined via specific histological stains.

Test [8] relates to bone marrow cells (CFU-S). Put plainly: pre-CFU-S assay. It is filed as cell-based, mouse. As for the experimental part:
The in vitro survival and proliferation of primitive stem cells is critical to the success of gene transfer mediated by retroviral insertion or other known methods of gene transfer. The effect of SCF on the in vitro maintenance and/or proliferation of primitive progenitor cells has been studied in two systems which have been described previously [Bodine et al., Proc. Natl. Acad. Sci. 86 8897–8901, 1989]. The first is a pre-CFU-S assay wherein bone marrow cells are incubated for up to six days in suspension culture in the presence of growth factors. Aliquots are injected into lethally iradiated mice and the mice sacrificed at 12–14 days for quantitation of spleen focus formation. […] The second is a competitive repopulation assay which measures the effects of growth factors on recovery and biological activity of cells capable of sustaining long-term hematopoiesis. Cells from two congenic strains of mice differing for a hemoglobin marker are incubated in suspension independently, cells from one strain as a control and cells from a second under experimental conditions. After incubation, equal numbers of bone marrow cells from both cultures are mixed and injected into W/W^v recipients.

For the molecule “GM-CSF: human granulocyte-macrophage colony stimulating factor”, the “Colony #/100,000 cells (±SEM)” value in test [1] is recorded as 7 ± 1. Further, in test [2], the “Colony #/10^5 cells (14 Days)” value was 14 ± 2. Besides, the “Colony #/3000 Cells ± SD” value in test [3] was determined as 14 ± 5. In test [4], the “replication of HIV in partially purified primary peripheral blood monocytes” value is on record as “significantly increase replication of HIV”.

B1: rat SCF: rat stem cell factor, natural (purified from BRL 3A conditioned medium) or recombinant; form not specified at the place (protein, UniProt P21581 26-190, looked up)
Soluble KIT ligand: QEICRNPVTDNVKDITKLVANLPNDYMITLNYVAGMDVLPSHCWLRDMVTHLSVSLTTLLDKFSNISEGLSNYSIIDKLGKIVDDLVACMEENAPKNVKESLKKPETRNFTPEEFFSIFNRSIDAFKDFMVASDTSDCVLSSTLGPEKDSRVSVTKPFMLPPVAA
On to B1, for which the “HPP-CFC per 200,000 cells plated” value in test [5] was “approximately 50”. In addition, in test [6], the “increase in CPM over background” value is 4–10 fold. Moreover, in test [7], the “colonies from 200,000 cells plated” value is “over 100”. For the same molecule, the “activity in the pre-CFU-S assay” value in test [8] was “very little activity”.
